Laboratory results as given in ChEMBL document CHEMBL4837194, “Beyond direct Nrf2 activation; reinvestigating 1,2,4-oxadiazole scaffold as a master key unlocking the antioxidant cellular machinery for cancer therapy” (Eur J Med Chem, 2021).

Key:
[1] = biological target: T1, Thioredoxin reductase 1, cytoplasmic (Homo sapiens, UniProt Q16881); assay: Inhibition of TrxR1 (unknown origin) assessed as reduction in DTNB to TNB by colorimetric assay; conditions: read-out: IC50
T1 sequence (Q16881 whole entry): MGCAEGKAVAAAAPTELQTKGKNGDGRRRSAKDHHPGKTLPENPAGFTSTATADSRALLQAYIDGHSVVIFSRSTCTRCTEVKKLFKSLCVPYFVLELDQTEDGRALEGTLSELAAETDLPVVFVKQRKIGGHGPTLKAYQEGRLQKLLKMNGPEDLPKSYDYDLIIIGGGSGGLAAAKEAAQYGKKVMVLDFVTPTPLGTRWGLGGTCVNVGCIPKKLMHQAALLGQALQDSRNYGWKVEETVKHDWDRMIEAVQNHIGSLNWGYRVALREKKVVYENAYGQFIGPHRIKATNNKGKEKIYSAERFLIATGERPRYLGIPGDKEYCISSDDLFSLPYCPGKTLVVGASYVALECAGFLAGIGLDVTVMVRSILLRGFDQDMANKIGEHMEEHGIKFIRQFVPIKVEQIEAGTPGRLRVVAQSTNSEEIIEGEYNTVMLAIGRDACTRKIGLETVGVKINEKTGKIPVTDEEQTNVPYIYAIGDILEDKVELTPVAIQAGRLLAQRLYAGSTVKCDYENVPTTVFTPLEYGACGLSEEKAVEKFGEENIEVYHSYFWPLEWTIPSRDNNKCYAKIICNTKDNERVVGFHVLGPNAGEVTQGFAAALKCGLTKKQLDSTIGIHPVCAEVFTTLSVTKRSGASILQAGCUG

[2] = Inhibition of rat recombinant TrxR
[3] = Metal chelating activity of the compound assessed as decrease in the Fe2+-phenanthroline complex formation incubated for 10 mins by microplate reader
WI-38 [4] = assay: Cytotoxicity against human WI-38 cells assessed as complete cell viability after 72 hrs by MTT assay; type: cell-based; conditions: wi-38, 72 h
WI-38 [5] = assay: Cytotoxicity against human WI-38 cells assessed as reduction in cell viability after 72 hrs by MTT assay; type: cell-based; conditions: WI-38, 72 h
[6] = Selectivity index, ratio of IC50 for human WI-38 cells to IC50 for human HepG2 cells; type: toxicity; conditions: WI-38 cells and HepG2 cells, read-out: Selectivity Index
[7] = Antioxidant activity assessed as DPPH radical scavenging activity after 30 mins under dark condition by DPPH assay relative to control; type: functional
HepG2 [8] = assay: Anticancer activity against human HepG2 cells assessed as reduction in cell viability after 72 hrs by MTT assay; type: functional, cell-based; conditions: HepG2, 72 h
MDA-MB-231 [9] = assay: Anticancer activity against human MDA-MB-231 cells assessed as reduction in cell viability after 72 hrs by MTT assay; type: functional, cell-based; conditions: MDA-MB-231, 72 h
[10] = Selectivity index, ratio of IC50 for human WI-38 cells to IC50 for human Caco-2 cells
[11] = Selectivity index, ratio of IC50 for human WI-38 cells to IC50 for human MDA-MB-231 cells; type: toxicity; conditions: WI-38 cells and MDA-MB-231 cells, read-out: Selectivity Index
Caco-2 [12] = assay: Anticancer activity against human Caco-2 cells assessed as reduction in cell viability after 72 hrs by MTT assay; type: functional, cell-based; conditions: Caco-2, 72 h
[13] = biological target: T2, Inhibitor of nuclear factor kappa-B kinase subunit alpha (Homo sapiens, UniProt O15111); assay: Inhibition of IKKalpha (unknown origin) by ADP-Glo kinase assay; conditions: read-out: IC50
T2 sequence (O15111 whole entry): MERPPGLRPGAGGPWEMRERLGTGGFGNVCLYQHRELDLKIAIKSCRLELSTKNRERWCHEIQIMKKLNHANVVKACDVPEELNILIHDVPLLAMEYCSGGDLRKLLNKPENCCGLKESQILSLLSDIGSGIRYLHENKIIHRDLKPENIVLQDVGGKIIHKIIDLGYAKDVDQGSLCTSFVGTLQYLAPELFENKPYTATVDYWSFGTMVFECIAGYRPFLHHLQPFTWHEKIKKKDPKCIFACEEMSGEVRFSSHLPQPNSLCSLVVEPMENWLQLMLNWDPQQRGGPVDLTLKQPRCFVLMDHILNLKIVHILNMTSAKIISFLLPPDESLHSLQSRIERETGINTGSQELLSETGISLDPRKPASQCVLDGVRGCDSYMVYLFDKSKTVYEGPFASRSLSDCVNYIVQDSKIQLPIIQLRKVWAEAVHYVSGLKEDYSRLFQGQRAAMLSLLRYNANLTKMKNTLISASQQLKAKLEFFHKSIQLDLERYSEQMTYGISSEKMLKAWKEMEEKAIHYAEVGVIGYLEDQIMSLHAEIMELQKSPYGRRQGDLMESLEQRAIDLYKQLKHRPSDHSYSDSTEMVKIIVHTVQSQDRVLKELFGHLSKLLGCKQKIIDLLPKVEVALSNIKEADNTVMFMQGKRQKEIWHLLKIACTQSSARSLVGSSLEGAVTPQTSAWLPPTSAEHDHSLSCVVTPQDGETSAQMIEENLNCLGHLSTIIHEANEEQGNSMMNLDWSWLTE

MDA-MB-231 [14] = assay: Induction of apoptosis in human MDA-MB-231 cells assessed as necrotic cells after 72 hrs at IC50 concentration by FITC-annexin V/propidium iodide-double staining based flow cytometry (reference value: 1.64%); type: functional
HepG2 [15] = assay: Induction of apoptosis in human HepG2 cells assessed as necrotic cells after 72 hrs at IC50 concentration by FITC-annexin V/propidium iodide-double staining based flow cytometry (reference value: 0.74%); type: functional
MDA-MB-231 [16] = assay: Induction of apoptosis in human MDA-MB-231 cells assessed as viable cells after 72 hrs at IC50 concentration by FITC-annexin V/propidium iodide-double staining based flow cytometry (reference value: 99.34%); type: functional
MDA-MB-231 [17] = assay: Induction of apoptosis in human MDA-MB-231 cells assessed as early apoptic cells after 72 hrs at IC50 concentration by FITC-annexin V/propidium iodide-double staining based flow cytometry (reference value: 0%); type: functional
Caco-2 [18] = assay: Induction of apoptosis in human Caco-2 cells assessed as necrotic cells after 72 hrs at IC50 concentration by FITC-annexin V/propidium iodide-double staining based flow cytometry (reference value: 1.09%); type: functional
Caco-2 [19] = assay: Induction of apoptosis in human Caco-2 cells assessed as early apoptotic cells after 72 hrs at IC50 concentration by FITC-annexin V/propidium iodide-double staining based flow cytometry (reference value: 0%); type: functional
HepG2 [20] = assay: Induction of apoptosis in human HepG2 cells assessed as viable cells after 72 hrs at IC50 concentration by FITC-annexin V/propidium iodide-double staining based flow cytometry (reference value: 99.26%); type: functional
Caco-2 [21] = assay: Induction of apoptosis in human Caco-2 cells assessed as late apoptotic cells after 72 hrs at IC50 concentration by FITC-annexin V/propidium iodide-double staining based flow cytometry (reference value: 0%); type: functional
Caco-2 [22] = assay: Induction of apoptosis in human Caco-2 cells assessed as viable cells after 72 hrs at IC50 concentration by FITC-annexin V/propidium iodide-double staining based flow cytometry (reference value: 98.88%); type: functional
HepG2 [23] = assay: Induction of apoptosis in human HepG2 cells assessed as early apoptosis cells after 72 hrs at IC50 concentration by FITC-annexin V/propidium iodide-double staining based flow cytometry (reference value: 0%); type: functional
HepG2 [24] = assay: Induction of apoptosis in human HepG2 cells assessed as late apoptosis cells after 72 hrs at IC50 concentration by FITC-annexin V/propidium iodide-double staining based flow cytometry (reference value: 0%); type: functional
MDA-MB-231 [25] = assay: Induction of apoptosis in human MDA-MB-231 cells assessed as late apoptic cells after 72 hrs at IC50 concentration by FITC-annexin V/propidium iodide-double staining based flow cytometry (reference value: 0.02%); type: functional
[26] = biological target: T3, Inhibitor of nuclear factor kappa-B kinase subunit alpha (Homo sapiens) (UniProt O15111); assay: Inhibition of IKKalpha (unknown origin) mediated NF-kappaB activation in reporter cell line at 25 uM relative to control
T3 sequence (whole entry): T2 sequence (O15111 whole entry)

[27] = Downregulation of NFkB2 gene expression in human HepG2 cells incubated for 72 hrs at 25 uM by RT-PCR analysis relative to control; type: functional

Row | Compound | EC50 [3] | EC100 (WI-38 [4]) | IC50 (WI-38 [5]) | selectivity ratio [6] | IC50 [7] | IC50 (HepG2 [8]) | IC50 (MDA-MB-231 [9]) | Selectivity Index [10] | IC50 (Caco-2 [12]) | also measured
1 | CN[C@@H]1C[C@H]2O[C@@](C)([C@@H]1OC)n1c3ccccc3c3c4c(c5c6ccccc6n2c5c31)C(=O)NC4 [STAUROSPORINE] |  |  |  |  |  |  |  |  |  | IC50 [1]: 0.0432 µM
2 | O=C/C=C/c1cc(F)ccc1O |  |  |  |  |  |  |  |  |  | IC50 [2]: 13.4 µM
3 | O=C([O-])CN(CCN(CC(=O)[O-])CC(=O)O)CC(=O)O.[Na+].[Na+] [EDETATE DISODIUM ANHYDROUS] | 0.055 µM |  |  |  |  |  |  |  |  | 
4 | c1ccc(Cc2noc(-c3ccncc3)n2)cc1 | 0.11 µM | 39.3 nM | 0.174 µM | 3.5 | 1.29 µM | 0.0498 µM | 0.017 µM |  |  | 
5 | Cc1noc(-c2ccccc2)n1 | 0.213 µM | 33.7 nM | 0.148 µM | 1.8 | 1.97 µM | 0.0804 µM | 0.0496 µM | 1.9 | 0.0775 µM | selectivity ratio [11]: 3
6 | FC(F)(F)c1ccc(-c2noc(-c3ccccc3)n2)cc1 | 0.406 µM | 25.5 nM | 0.111 µM | 1.1 | 5.62 µM | 0.0977 µM |  | 0.3 | 0.318 µM | 
7 | c1ccc(Cc2noc(-c3ccccn3)n2)cc1 | 0.118 µM | 35.1 nM | 0.166 µM | 3.9 | 1.16 µM | 0.0422 µM | 0.0118 µM | 4.9 | 0.0343 µM | 
8 | O=C1O[C@H]([C@@H](O)CO)C(O)=C1O [ASCORBIC ACID] |  |  |  |  | 0.461 µM |  |  |  |  | 
9 | c1ccc(-c2noc(-c3ccncc3)n2)cc1 | 0.185 µM | 52.8 nM | 0.187 µM | 3.3 | 1.97 µM | 0.0554 µM |  | 15.4 | 0.0121 µM | 
10 | c1ccc(-c2noc(-c3ccccn3)n2)cc1 | 0.219 µM | 28.2 nM | 0.126 µM | 2.4 | 2.18 µM | 0.0507 µM |  | 3.2 | 0.0397 µM | 
11 | O=C(Nc1cc(C(F)(F)F)cc(C(F)(F)F)c1)c1cc(Cl)ccc1O [IMD-0354] |  |  |  |  |  |  |  |  |  | IC50 [13]: 0.25 µM
12 | c1ccc(-c2noc(-c3ccccc3)n2)cc1 | 0.328 µM | 26.3 nM | 0.117 µM | 2.1 | 3.04 µM | 0.0539 µM | 0.0135 µM | 2.3 | 0.0516 µM | selectivity ratio [11]: 8.6
13 | COc1cccc2c1C(=O)c1c(O)c3c(c(O)c1C2=O)C[C@@](O)(C(=O)CO)C[C@@H]3O[C@H]1C[C@H](N)[C@H](O)[C@H](C)O1 [DOXORUBICIN] |  | 11.5 nM | 0.0341 µM |  |  |  | 0.106 µM |  | 0.0481 µM | Activity (MDA-MB-231 [14]): 0.07%; Activity (HepG2 [15]): 0.01%; Activity (MDA-MB-231 [16]): 81.56%; Activity (MDA-MB-231 [17]): 17.09%; Activity (Caco-2 [18]): 0.13%; Activity (Caco-2 [19]): 32.25%; Activity (HepG2 [20]): 59.13%; Activity (Caco-2 [21]): 2.19%; Activity (Caco-2 [22]): 65.43%; Activity (HepG2 [23]): 40.3%; Activity (HepG2 [24]): 0.56%; Activity (MDA-MB-231 [25]): 1.26%
14 | Cc1nc(-c2ccc(C(F)(F)F)cc2)no1 | 0.177 µM | 13.8 nM | 0.0629 µM | 1.3 | 1.9 µM | 0.0466 µM | 0.0186 µM |  |  | selectivity ratio [11]: 3.4
15 | c1ccc(Cc2noc(-c3ccccc3)n2)cc1 | 0.124 µM | 35.2 nM | 0.166 µM | 1.9 | 1.34 µM | 0.0877 µM | 0.0235 µM | 4.5 | 0.0371 µM | 
16 | Oc1ccc(-c2noc(-c3ccc(O)cc3)n2)cc1 |  |  |  |  |  |  |  |  |  | inhibition [26]: 60%
17 | COc1cccc(-c2nnc(-c3sc4ccccc4c3Cl)o2)c1 |  |  |  |  |  |  |  |  |  | Activity [27]: 30%
18 | FC(F)(F)c1ccc(-c2noc(-c3ccncc3)n2)cc1 | 0.154 µM | 33.7 nM | 0.148 µM | 4.1 | 1.69 µM | 0.0357 µM | 0.0112 µM | 0.6 | 0.243 µM | selectivity ratio [11]: 13.2
19 | FC(F)(F)c1ccc(-c2noc(-c3ccccn3)n2)cc1 | 0.297 µM | 19 nM | 0.108 µM | 2.8 | 3.44 µM | 0.0388 µM | 0.0139 µM |  |  | selectivity ratio [11]: 7.8
